Measured values taken from patent US4595677A, “Substituted tetrapeptides” (Ciba-Geigy Corporation, priority 1982, dated 1986).
Non-standard residues stand in square brackets, D forms with d. Residues, ends and D or L forms follow the SMILES beside them. *: point of attachment. Sta = CC(C)C[C@H](N)[C@@H](O)CC(=O)O; Cbz = O=C(OCc1ccccc1)*; Boc = CC(C)(C)OC(=O)*; Lac = C[C@H](O)C(=O)O; βAla = NCCC(=O)O; Sar = CNCC(=O)O

Test: solubility in water of the isolated powder
Type: physicochemical
Settings: lyophilised product

| Compound | water solubility of the amorphous powder |
| --- | --- |
| CC(C)C[C@H](NC(=O)[C@H](Cc1c[nH]cn1)NC(=O)[C@H](Cc1ccccc1)NC(=O)[C@@H]1CCCN1C(=O)[C@H](CCCNC(=N)N)NC(=O)[C@@H](N)CCCNC(=N)N)[C@@H](O)CC(=O)O[C@@H](C)C(=O)N[C@@H](Cc1c[nH]cn1)C(N)=O [Example 23, H-Arg-Arg-Pro-Phe-His-Sta-Lac-His-NH2] (H-RRPFH[Sta][Lac]H-NH2) | water-soluble |
| Cbz-RRPFH[Sta][βAla]H-NH2 [Example 20] | water-soluble |
| Cbz-RRPFH[Sta][Sar]HK(Boc)-OMe [Example 16] | readily water-soluble |
| Z-Arg-Arg-Pro-Phe-His-Sta-Lac-His-NH2 [Example 22] | readily water-soluble |

Next, values leading:

| water solubility of the amorphous powder | Compound |
| --- | --- |
| readily water-soluble | CC(C)C[C@H](NC(=O)[C@H](Cc1c[nH]cn1)NC(=O)[C@H](Cc1ccccc1)NC(=O)[C@@H]1CCCN1C(=O)[C@H](Cc1c[nH]cn1)NC(=O)[C@@H]1CCCN1)[C@@H](O)CC(=O)N[C@H](C(=O)N[C@@H](Cc1ccc(O)cc1)C(=O)N[C@@H](CCCCN)C(=O)O)C(C)C [Example 1, H-Pro-His-Pro-Phe-His-Sta-Val-Tyr-Lys-OH×AcOH] (H-PHPFH[Sta]VYK-OH) |
| readily water-soluble | CC(C)C[C@H](NC(=O)[C@H](Cc1c[nH]cn1)NC(=O)[C@H](Cc1ccccc1)NC(=O)[C@@H]1CCCN1C(=O)[C@H](CCCNC(=N)N)NC(=O)[C@@H](N)CCCNC(=N)N)[C@@H](O)CC(=O)N(C)CC(=O)N[C@@H](Cc1c[nH]cn1)C(=O)N[C@@H](CCCCN)C(=O)O [Example 19, H-Arg-Arg-Pro-Phe-His-Sta-Sar-His-Lys-OH] (H-RRPFH[Sta][Sar]HK-OH) |
